Source: publication PMC3025922 (BMC Biology, 2010)
Several values for one entry are separate records, joined by “and”; a condition that tells them apart may be missing. Equal values may be shown once. Read-outs that look alike come from different tables or passages of the source. Residues, ends and D or L forms follow the SMILES beside them. *: point of attachment. Cbz = O=C(OCc1ccccc1)*

Columns and labels:
[1] = target: PDGF receptor tyrosine kinase; settings: vendor annotation of library compound (Biomol EI-215); cited from earlier work
[2] = test system: nuclear p27 in LNCaP-S14 cells; assay type: cell-based, human; settings: primary screening
[3] = test system: p27 protein levels in LNCaP-S14 cells; test: Immunoblot quantification of p27, LNCaP-S14; assay type: cell-based, human
Method: (§1) Total cell lysate from cells treated with vehicle (DMSO) or compounds were obtained by incubating cells in lysis buffer (25 mM Tris-HCl pH 7.4, 150 mM NaCl, 0.5% Triton X-100, protease inhibitors) for 15 min at 4°C. The supernatant was collected by centrifugation and the amount of protein was determined with a Bio-Rad protein assay (Bio-Rad) using BSA as standard. Equal amounts of protein were subjected to SDS-PAGE (4%-20% gels, Invitrogen) and transferred to PVDF membranes. The membranes were blocked with TBST (50 mM Tris-HCl pH 7.5, 150 mM NaCl, 0.05% Tween-20) containing 5% non-fat dry milk or bovine serum albumin (BSA) for 1 h at room temperature, followed by incubation in primary antibodies 4°C overnight. Membranes were washed and incubated with secondary antibodies conjugated to HRP (Jackson ImmunoResearch Laboratories) for 1 h at room temperature. Signals were visualized using the ECL Western Blotting Substrate (Pierce Biotechnology, IL, USA) according to the manufacturer's instructions. Membranes were stripped using Restore™ Western Blot Stripping Buffer (Pierce Biotechnology). Films were scanned and quantification of the bands was performed using Image J software http://rsbweb.nih.gov/ij/.

[4] = test system: p21 protein levels in HeLa cells; test: Immunoblot quantification of p21, HeLa; assay type: cell-based, human
Method: as §1

[5] = test system: p27 protein levels in PC3 cells; test: Immunoblot quantification of p27, PC3; assay type: cell-based, human
Method: as §1

[6] = test system: p27 protein levels in DU145 cells; test: Immunoblot quantification of p27, DU145; assay type: cell-based, human
Method: as §1

[7] = test system: p27 protein levels in LNCaP cells; test: Immunoblot quantification of p27, LNCaP; assay type: cell-based, human
Method: as §1

[8] = test system: p27 protein levels in IMR90 cells; test: Immunoblot quantification of p27, IMR90; assay type: cell-based, human
Method: as §1

[9] = test system: p21 protein levels in IMR90 cells; test: Immunoblot quantification of p21, IMR90; assay type: cell-based, human
Method: as §1

[10] = test system: p21 protein levels in DU145 cells; test: Immunoblot quantification of p21, DU145; assay type: cell-based, human
Method: as §1

[11] = test system: polyubiquitylated proteins in LNCaP-S14 cells; test: Anti-ubiquitin immunoblot of total lysate; assay type: cell-based, human; settings: LNCaP-S14, SMIPs 20 and 40 μM, MG132 20 μM, bortezomib 100 nM, 24 h
Method: as §1

[12] = test system: p21 protein levels in PC3 cells; test: Immunoblot quantification of p21, PC3; assay type: cell-based, human
Method: as §1

[13] = test system: p27 protein levels in HeLa cells; test: Immunoblot quantification of p27, HeLa; assay type: cell-based, human
Method: as §1

[14] = MTT cytotoxicity assay, IMR90; assay type: cell-based; settings: human, IMR90, 0.01 - 40 μM, 72 h
Method: (§3) LNCaP-S14 (10,000 cells), PC3, DU145 or IMR90 cells (5000 cells) were seeded in 96-well plates and treated with increasing concentrations of the respective SMIPs for 72 h. Cell viability was assessed using the MTT cell proliferation assay (ATCC®, Middlesex, UK) according to the manufacturer's protocol. IC50 was calculated using the BioDataFit 1.02 software http://www.changbioscience.com/stat/ec50.html.

[15] = test system: p21 protein levels in LNCaP cells; test: Immunoblot quantification of p21, LNCaP; assay type: cell-based, human
Method: as §1

[16] = test system: LNCaP-S14 cells; test: MTT cytotoxicity assay, LNCaP-S14; settings: Homo sapiens, 72 h, read-out: IC50 (MTT cytotoxicity)
Method: as §3

[17] = test system: DU145 cells; test: MTT cytotoxicity assay, DU145; settings: Homo sapiens, read-out: IC50 (MTT cytotoxicity)
Method: as §3

[18] = test system: p21 protein levels in LNCaP-S14 cells; test: Immunoblot quantification of p21, LNCaP-S14; assay type: cell-based, human
Method: as §1

[19] = test system: LNCaP-S14 cells; test: Cell Death Detection ELISA (cytoplasmic histone-associated DNA fragments); assay type: cell-based, human
Method: Apoptosis was measured using the Cell Death Detection ELISA (Roche, Basel, Switzerland) following the manufacturer's instructions. Briefly, LNCaP-S14 cells (0.1 × 10^6) were seeded in 12-well plates and treated with SMIPs (40 μM) for 24 h. Cells were collected in medium, spun at 1000 rpm, and resuspended in 1 mL PBS at the specified time points (day 1 to day 3). The cell suspension was divided into two parts. The first half was used for determination of cytoplasmic histone-associated DNA fragments (ELISA), the second for protein determination to normalize the ELISA data to the amount of input protein.

[20] = test system: LNCaP cells; test: Cell cycle analysis by flow cytometry, LNCaP; assay type: cell-based, human
Method: (§2) Cells were exposed to SMIPs (40 μM) for 24 h and 48 h. Cells were trypsinized, washed with PBS and suspended in 600 μL PBS. Cells were fixed by adding 1.4 mL cold absolute ethanol and kept at -20°C for at least 12 h. After washing once with PBS, the cells were resuspended in 250 μL PBS containing 2.5 μg RNAse A and incubated for 45 min at room temperature. Staining was done by adding 40 μg/mL of propidium iodine followed by incubation for 15 min at room temperature. DNA-bound fluorescence was read at 564 to 606 nm using FACSort and FACSCanto flow cytometers (BD Biosciences) at the Flow Cytometry Facility of the Sanford-Burnham Medical Research Institute. Distribution of cells in the different cell cycle phase was determined with ModFit LT 3.2.1 or FlowJo 8.6 software. Aggregates were excluded from the analysis manually using pulse shape or identified by automated modelling in ModFit LT.

[21] = test system: LNCaP-S14 cells; test: Cell cycle analysis by flow cytometry, LNCaP-S14; assay type: cell-based, human
Method: as §2

[22] = test system: PC3 cells; test: Cell cycle analysis by flow cytometry, PC3; assay type: cell-based, human
Method: as §2

[23] = test system: PC3 cells; test: MTT cytotoxicity assay, PC3; settings: Homo sapiens, read-out: IC50 (MTT cytotoxicity)
Method: as §3

[24] = test system: p27 stability in LNCaP-S14 cells; test: Protein half-life by cycloheximide chase; assay type: cell-based, human; settings: human
Method: LNCaP-S14 cells were treated with SMIPs (40 μM) for 18 h followed by the addition of 100 μg/mL cycloheximide (CHX). Cell extracts were obtained as described above at different times after CHX addition. Protein lysate was subjected to SDS-PAGE and immunoblotting for p27, p21 and SKP2. Tubulin was used as loading control. Protein half-lives were calculated using a web based calculator http://www.1728.com/halflife.htm.

[25] = test system: LNCaP-S14 cells; test: Cell cycle distribution in LNCaP-S14 transfected with siRNAs for p27 and p21; assay type: cell-based, human
Method: as §2
LNCaP-S14 cells were seeded in 6 cm dishes or six-well-plates coated with poly-lysine the day before transfection. 10-20 nM of siRNA was transfected using DharmaFECT 3 (Thermo Scientific) according to the manufacturer's instructions. Briefly, siRNAs were dissolved in siRNA suspension buffer (Quiagen) at 20 μM, heated to 90°C for 1 min and incubated at 37°C for 1 h. siRNAs were added to the DharmaFECT 3 reagent diluted in Optimem media (1:100) and incubated for 20 min at room temperature. The mix was added to the cells for 24 h. Treatment with SMIPs (40 μM) or vehicle was carried on for another 24 h. Cells were obtained for FACS or lysed for immunoblotting analysis as described above. Untransfected cells as well as cells transfected with non-specific siRNA were used as controls. Silencer® Negative Control siRNA No.1 from Ambion (Applied Biosciences, CA, USA) was used as non-specific control siRNA. siRNA target sequences for p27 and p21 synthesized by IDT (Integrated DNA Technologies Inc, Iowa, USA) were as follows; p27 siRNA: […], and p21 siRNA: […] [56].

[26] = test system: DU145 cells; test: Cell cycle analysis by flow cytometry, DU145; assay type: cell-based, human
Method: as §2

[27] = test system: SKP2 levels in LNCaP-S14 cells; assay type: cell-based, human
[28] = test system: LNCaP-WT cells; test: MTT cytotoxicity assay, LNCaP-WT; settings: Homo sapiens, read-out: IC50 (MTT cytotoxicity)
Method: as §3

[29] = test system: IMR90 cells; test: Cell cycle analysis by flow cytometry, IMR90; assay type: cell-based, human
Method: as §2

[30] = LNCaP-S14, 24 h, SMIPs 40 μM, MG132 20 μM, bortezomib 100 nM
[31] = HeLa, 24 h, SMIPs 40 μM, MG132 20 μM, bortezomib 100 nM
[32] = PC3, 24 h, SMIPs 40 μM, MG132 20 μM, bortezomib 100 nM
[33] = DU145, 24 h, SMIPs 40 μM, MG132 20 μM, bortezomib 100 nM
[34] = LNCaP, 24 h, SMIPs 40 μM, MG132 20 μM, bortezomib 100 nM
[35] = IMR90, 24 h, SMIPs 40 μM, MG132 20 μM, bortezomib 100 nM

CC(C)(C)c1cc(C=C(C#N)C#N)cc(C(C)(C)C)c1O [1362L21]
IC50 [1]: 1200 nM
Z score (aver) ([2]; nuclear p27 in LNCaP-S14 cells): 6.21
Clasf ([2]; S = strong, M = medium, W = weak by Z score): S (strong (Z score > 5))

CC(C)C[C@H](NC(=O)[C@H](Cc1ccccc1)NC(=O)c1cnccn1)B(O)O [Bortezomib, reference compound]
p27 protein level (immunoblot, DMSO = 1.0) [3, 30]: 1.8
p21 protein level (immunoblot, DMSO = 1.0) [4, 31]: 2.2 ± 0.8
p27 protein level (immunoblot, DMSO = 1.0) [5, 32]: 2.5 ± 1.0
p27 protein level (immunoblot, DMSO = 1.0) [6, 33]: 1.7 ± 0.5
p27 protein level (immunoblot, DMSO = 1.0) [7, 34]: 2.1
p27 protein level (immunoblot, DMSO = 1.0) [8, 35]: 1.8 ± 0.0
p21 protein level (immunoblot, DMSO = 1.0) [9, 35]: 1.8 ± 0.4
p21 protein level (immunoblot, DMSO = 1.0) [10, 33]: 2.5 ± 0.4
accumulation of polyubiquitylated proteins [11]: readily seen
p21 protein level (immunoblot, DMSO = 1.0) [12, 32]: 4.7 ± 1.4
p27 protein level (immunoblot, DMSO = 1.0) [13, 31]: 1.3 ± 0.2

CC(C)C[C@@H](C=O)NC(=O)[C@H](CC(C)C)NC(=O)[C@H](CC(C)C)NC(=O)OCc1ccccc1 [MG132, reference compound] (Cbz-Leu-Leu-Leu-aldehyde)
p27 protein level (immunoblot, DMSO = 1.0) [3, 30]: 1.5
p21 protein level (immunoblot, DMSO = 1.0) [4, 31]: 5.9 ± 1.7
p27 protein level (immunoblot, DMSO = 1.0) [5, 32]: 2.0 ± 1.0
IC50 [14]: 445 nM
p21 protein level (immunoblot, DMSO = 1.0) ([15]; LNCaP, 24 h, SMIPs 40 μM, MG132 20 μM): 2.9
IC50 [16]: 379 nM
p27 protein level (immunoblot, DMSO = 1.0) [6, 33]: 2.4 ± 0.1
p27 protein level (immunoblot, DMSO = 1.0) [7, 34]: 1.9 ± 0.1
p27 protein level (immunoblot, DMSO = 1.0) [8, 35]: 0.9 ± 0.5
p21 protein level (immunoblot, DMSO = 1.0) [10, 33]: 3.1
accumulation of polyubiquitylated proteins [11]: readily seen
p21 protein level (immunoblot, DMSO = 1.0) [12, 32]: 4.1 ± 0.4
p27 protein level (immunoblot, DMSO = 1.0) [13, 31]: 2.2 ± 0.9

CCCCc1ccc(NC(C)=O)c(C)c1 [SMIP004]
IC50 ([17]; DU-145, 72 h): > 80000 nM
IC50 ([17]; DU-145, 96 h): > 80000 nM
p27 accumulation by immunoblotting [3]: ~ threefold
p27 protein level (immunoblot, DMSO = 1.0) [3]: 2.4 ± 0.7
p21 protein level (immunoblot, DMSO = 1.0) [18]: 2.8 ± 0.7
p21 protein level (immunoblot, DMSO = 1.0) [4]: 1.1 ± 0.1
increase in the amount of mono and oligonucleosomes [19]: three- to fivefold
p27 protein level (immunoblot, DMSO = 1.0) [5]: 1.1 ± 0.3
Cell cycle distribution G1 [20]: 81.7 and 87.3
Cell cycle distribution G2 [20]: 9.8 and 6.6
Cell cycle distribution G1 [21]: 72.3 and 75.8
Cell cycle distribution G2 [21]: 7.1 and 6.4
Cell cycle distribution S [21]: 19.1 and 14.7
p21 protein level (immunoblot, DMSO = 1.0) [15]: 2.7 ± 0.1
Cell cycle distribution G1 [22]: 58.5 and 65.8
Cell cycle distribution G2 [22]: 25.7 and 24.3
Cell cycle distribution S [22]: 14.3 and 8.5
IC50 [16]: 1090 nM
p27 protein level (immunoblot, DMSO = 1.0) [6]: 1.3 ± 0.1
IC50 ([23]; PC-3, 72 h): > 80000 nM
IC50 ([23]; PC-3, 96 h): > 80000 nM
p27 protein level (immunoblot, DMSO = 1.0) [7]: 2.1 ± 1.1
p27 half-life [24]: > 6 h
% G1 [25]: 66.92% and 62.86% and 69.79% and 66.56%
% G2 [25]: 13.34% and 17.13% and 13.32% and 15.94%
% S [25]: 19.75% and 20.02% and 16.90% and 17.50%
p27 protein level (immunoblot, DMSO = 1.0) [8]: 1.2 ± 0.3
p21 protein level (immunoblot, DMSO = 1.0) [9]: 1.1 ± 0.0
p21 protein level (immunoblot, DMSO = 1.0) [10]: 1.7 ± 0.5
Cell cycle distribution G1 [26]: 75.7 and 79.7
Cell cycle distribution G2 [26]: 8.0 and 10.4
Cell cycle distribution S [26]: 14.1 and 9.0
SKP2 levels (endogenous and exogenous) by immunoblotting [27]: decrease
IC50 ([28]; 72 h): 40000 nM
IC50 ([28]; 96 h): 2400 nM
p21 protein level (immunoblot, DMSO = 1.0) [12]: 1.7 ± 0.9
p27 protein level (immunoblot, DMSO = 1.0) [13]: 1.1 ± 0.2
Cell cycle distribution G1 [29]: 68.6 and 77.6
Cell cycle distribution G2 [29]: 13.2 and 10.9
Cell cycle distribution S [29]: 18.2 and 11.5
